# Bases are written 5' to 3'; sugars and linkages follow in the same order, as letters with counts (s phosphorothioate, o phosphodiester; PS: all linkages phosphorothioate). The collection does not say whether C is 5-methylated. l = locked nucleic acid (LNA); d = 2'-deoxy (DNA)
# Molecular target: Tau
# Assay: rat primary cortical neurons, FLIPR, 25 uM ASO
row,Sequence,calcium oscillation score
1,"CATGATTGTGGGCTTA (sugars l3 d10 l3, PS)",0 % of control
2,"TCATTCAGCCAATCAC (sugars l4 d9 l3, PS)",52.4 % of control
3,"CCCGCCTTTAGTGATT (sugars l3 d10 l3, PS)",30.9 % of control
4,"TTTGGCGTTCTCGC (sugars l3 d8 l3, PS)",28.7 % of control
5,"CCAGACACCACTGGCGACTT (sugars l3 d14 l3, PS)",128 % of control
6,"CACTTTCCTAATTCCCAA (sugars l2 d13 l3, PS)",72.7 % of control
7,"CTCATCAACACCTTTTAATT (sugars l4 d14 l2, PS)",78.7 % of control
8,"ATTTTACTACTCTCTTTT (sugars l4 d10 l4, PS)",75 % of control
9,"CATGCTTACACACCAC (sugars l2 d10 l4, PS)",82.9 % of control
10,"GTGGGTGATATTGTCCAGGG (sugars l3 d14 l3, PS)",0 % of control
11,"TTATTTCCAAATTCACTTTT (sugars l1 d17 l2, PS)",166 % of control
12,"ATCACAAACCCTGCTTGGCC (sugars l3 d14 l3, PS)",55.2 % of control
13,"TTTCATGTTAAATCCCT (sugars l4 d10 l3, PS)",94.2 % of control
14,"CGAACTGCGAGGAGCA (sugars l3 d10 l3, PS)",2.71 % of control
15,"ACCAATTAACCGAACT (sugars l3 d10 l3, PS)",159 % of control
16,"CACCACTTTAATCTGCCT (sugars l2 d14 l2, PS)",41.1 % of control
17,"GTTAACTCATCAACACC (sugars l4 d10 l3, PS)",86.6 % of control
18,"TTTACCAATTTGCCTAA (sugars l4 d9 l4, PS)",43.1 % of control
19,"CGTGATCTTCCATC (sugars l3 d8 l3, PS)",85.1 % of control
20,"GTTTTTTAACTCCCAAC (sugars l4 d9 l4, PS)",74.1 % of control
21,"GGTTAAGTGATTAACCAATT (sugars l3 d14 l3, PS)",157 % of control
22,"CCACCTCATTAAGATCA (sugars l3 d12 l2, PS)",56 % of control
23,"GGGTGATATTGTCCAGGGAC (sugars l3 d14 l3, PS)",0 % of control
24,"TCCTCCATTGTAACTA (sugars l4 d10 l2, PS)",85.3 % of control
25,"AGCTTCCACATTTTACA (sugars l3 d12 l2, PS)",63.8 % of control
26,"TAATTACATTTTTTCTTTTT (sugars l4 d12 l4, PS)",58.2 % of control

row,Sequence,calcium oscillation score
1,"CGCCCCACTTTTAATT (sugars l3 d11 l2, PS)",58.3 % of control
2,"TTGAGTTGAGGGACCC (sugars l3 d10 l3, PS)",0 % of control
3,"AATATTACACCATCCAA (sugars l4 d9 l4, PS)",95.7 % of control
4,"TATCCAGCCATATTTCAACT (sugars l3 d14 l3, PS)",47.6 % of control
5,"TTGGATCAGAGGGTCT (sugars l3 d10 l3, PS)",11.1 % of control
6,"TACAGTTGGCCCTACCATAT (sugars l3 d14 l3, PS)",52.4 % of control
7,"CCAGGGACGTGGGTGATATT (sugars l3 d14 l3, PS)",0 % of control
8,"CATTAACCCTTGATCATATT (sugars l3 d14 l3, PS)",36.3 % of control
9,"GTGATTAACCAATTAACCGA (sugars l3 d14 l3, PS)",6.48 % of control
10,"TATTTCCAAATTCACTTTTA (sugars lllddldddddddddldlll, PS)",147 % of control
11,"ACCCCGAATTTACACCC (sugars l1 d14 l2, PS)",86.2 % of control
12,"CTAAAGTCCCAGGTC (sugars l3 d9 l3, PS)",40.5 % of control
13,"CTTTATTTCCAAATTCACT (sugars l3 d11 l1 d2 l2, PS)",140 % of control
14,"CTAAAGTCCCAGGTCT (sugars l3 d10 l3, PS)",59.2 % of control
15,"CCTTTTTCCATCTTACTAAT (sugars l3 d14 l3, PS)",54.7 % of control
16,"CAGCATTTCCATTTCATC (sugars l2 d13 l3, PS)",52.7 % of control
17,"TCCCCCAAAATATCTCAA (sugars l3 d13 l2, PS)",53.9 % of control
18,"ATTTTTACCAATTTGCC (sugars l2 d11 l4, PS)",57 % of control
19,"AGCAATAGCAAACAGG (sugars l3 d10 l3, PS)",48.8 % of control
20,"GCAGAGGAACGTGTGG (sugars l3 d10 l3, PS)",0 % of control
21,"CCCAGCGTGATCTTCCATCA (sugars ldlllddddddddddlldll, PS)",124 % of control
22,"CTTTATTTCCAAATTCACT (sugars l4 d10 l1 d1 l3, PS)",106 % of control
23,"TCCCCCAAAATATCTCA (sugars l2 d12 l3, PS)",87.1 % of control
24,"AATTATTTACACTGTCC (sugars l4 d9 l4, PS)",55.6 % of control
25,"GCGACTTGTACACGATCTCC (sugars l3 d14 l3, PS)",7.77 % of control
26,"TGTGATGCAGGAGTT (sugars l3 d9 l3, PS)",70.5 % of control

row,Sequence,calcium oscillation score
1,"ATGACCTCAACTCTACCT (sugars l3 d13 l2, PS)",61 % of control
2,"GGTGCTCTGGTCAAGG (sugars l3 d10 l3, PS)",14.9 % of control
3,"GAAAGATGAAATTTGCTCTT (sugars l3 d14 l3, PS)",100 % of control
4,"CAGCTTCGTCTTCCAG (sugars l3 d10 l3, PS)",75.9 % of control
5,"CAGCACACAGGCAGCCACTG (sugars l3 d14 l3, PS)",23.8 % of control
6,"TCAGATTTTACTTCCACC (sugars l2 d13 l3, PS)",57.5 % of control
7,"TATTTCCAAATTCACTTTTA (sugars llldldddddddddlddlll, PS)",125 % of control
8,"ACAGATATTCATTCCCT (sugars l4 d11 l2, PS)",44.2 % of control
9,"AACTTTTACTCTGACTA (sugars l4 d9 l4, PS)",51.9 % of control
10,"CCTAGAACACAACACAC (sugars l3 d10 l4, PS)",58.6 % of control
11,"AGACCACATTTCCATCCC (sugars l1 d15 l2, PS)",71.6 % of control
12,"TCTCTCTTAACTTTATTTTA (sugars l3 d13 l4, PS)",80.8 % of control
13,"TATTTCCAAATTCACTTTTA (sugars llddlldddddddddlldll, PS)",123 % of control
14,"ACCCCATTTTTGACATA (sugars l3 d12 l2, PS)",73.1 % of control
15,"ATCGCTTCCAGTCC (sugars l3 d8 l3, PS)",29.9 % of control
16,"TTTCAACTCTTAGCAT (sugars l4 d8 l4, PS)",70.8 % of control
17,"TGCAATTTCCTTTCCAT (sugars l3 d11 l3, PS)",67.6 % of control
18,"ACAGCCTCATAAACCT (sugars l4 d10 l2, PS)",66.8 % of control
19,"TAGACTCCTTCTTTAGGCTT (sugars l3 d14 l3, PS)",45.2 % of control
20,"CTTTATTTCCAAATTCACT (sugars l3 d11 l2 d1 l2, PS)",116 % of control
21,"ATTTCCAAATTCACTTTTAC (sugars l5 d10 l5, PS)",≥ 200 % of control
22,"CGCGGAAGGTCAGCTTGTGG (sugars l3 d14 l3, PS)",0 % of control
23,"AAAGTACTATCCACTT (sugars l4 d8 l4, PS)",79.1 % of control
24,"CTCAAATCAATTCTCATTTC (sugars l4 d13 l3, PS)",62 % of control
25,"TTATACAGTTGGCCCTACCA (sugars l3 d14 l3, PS)",40.5 % of control

# Source: the OligoGym collection
